In this experiment the target is ATR kinase (full-length ATR) (Homo sapiens (Human), UniProt Q13535). As to the kind of experiment: ATR inhibition assay (radioactive-phosphate incorporation). The experiment is classed as biochemical. The conditions noted are these: Ki(app), 5 nM full-length ATR, 10 μM ATP, 25° C. An outline of the steps: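 Radiometric 33P incorporation by 5 nM full-length ATR into 800 μM target peptide with 10 μM [γ-33P]ATP, in 50 mM Tris/HCl pH 7.5, 10 mM MgCl2, 1 mM DTT, 7% DMSO, 25° C. Compound pre-incubated 10 minutes; reaction stopped after 24 hours, captured on phosphocellulose. Ki(app) from non-linear regression of initial rates.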
Chain of ATR kinase (full-length ATR) (Q13535 whole entry): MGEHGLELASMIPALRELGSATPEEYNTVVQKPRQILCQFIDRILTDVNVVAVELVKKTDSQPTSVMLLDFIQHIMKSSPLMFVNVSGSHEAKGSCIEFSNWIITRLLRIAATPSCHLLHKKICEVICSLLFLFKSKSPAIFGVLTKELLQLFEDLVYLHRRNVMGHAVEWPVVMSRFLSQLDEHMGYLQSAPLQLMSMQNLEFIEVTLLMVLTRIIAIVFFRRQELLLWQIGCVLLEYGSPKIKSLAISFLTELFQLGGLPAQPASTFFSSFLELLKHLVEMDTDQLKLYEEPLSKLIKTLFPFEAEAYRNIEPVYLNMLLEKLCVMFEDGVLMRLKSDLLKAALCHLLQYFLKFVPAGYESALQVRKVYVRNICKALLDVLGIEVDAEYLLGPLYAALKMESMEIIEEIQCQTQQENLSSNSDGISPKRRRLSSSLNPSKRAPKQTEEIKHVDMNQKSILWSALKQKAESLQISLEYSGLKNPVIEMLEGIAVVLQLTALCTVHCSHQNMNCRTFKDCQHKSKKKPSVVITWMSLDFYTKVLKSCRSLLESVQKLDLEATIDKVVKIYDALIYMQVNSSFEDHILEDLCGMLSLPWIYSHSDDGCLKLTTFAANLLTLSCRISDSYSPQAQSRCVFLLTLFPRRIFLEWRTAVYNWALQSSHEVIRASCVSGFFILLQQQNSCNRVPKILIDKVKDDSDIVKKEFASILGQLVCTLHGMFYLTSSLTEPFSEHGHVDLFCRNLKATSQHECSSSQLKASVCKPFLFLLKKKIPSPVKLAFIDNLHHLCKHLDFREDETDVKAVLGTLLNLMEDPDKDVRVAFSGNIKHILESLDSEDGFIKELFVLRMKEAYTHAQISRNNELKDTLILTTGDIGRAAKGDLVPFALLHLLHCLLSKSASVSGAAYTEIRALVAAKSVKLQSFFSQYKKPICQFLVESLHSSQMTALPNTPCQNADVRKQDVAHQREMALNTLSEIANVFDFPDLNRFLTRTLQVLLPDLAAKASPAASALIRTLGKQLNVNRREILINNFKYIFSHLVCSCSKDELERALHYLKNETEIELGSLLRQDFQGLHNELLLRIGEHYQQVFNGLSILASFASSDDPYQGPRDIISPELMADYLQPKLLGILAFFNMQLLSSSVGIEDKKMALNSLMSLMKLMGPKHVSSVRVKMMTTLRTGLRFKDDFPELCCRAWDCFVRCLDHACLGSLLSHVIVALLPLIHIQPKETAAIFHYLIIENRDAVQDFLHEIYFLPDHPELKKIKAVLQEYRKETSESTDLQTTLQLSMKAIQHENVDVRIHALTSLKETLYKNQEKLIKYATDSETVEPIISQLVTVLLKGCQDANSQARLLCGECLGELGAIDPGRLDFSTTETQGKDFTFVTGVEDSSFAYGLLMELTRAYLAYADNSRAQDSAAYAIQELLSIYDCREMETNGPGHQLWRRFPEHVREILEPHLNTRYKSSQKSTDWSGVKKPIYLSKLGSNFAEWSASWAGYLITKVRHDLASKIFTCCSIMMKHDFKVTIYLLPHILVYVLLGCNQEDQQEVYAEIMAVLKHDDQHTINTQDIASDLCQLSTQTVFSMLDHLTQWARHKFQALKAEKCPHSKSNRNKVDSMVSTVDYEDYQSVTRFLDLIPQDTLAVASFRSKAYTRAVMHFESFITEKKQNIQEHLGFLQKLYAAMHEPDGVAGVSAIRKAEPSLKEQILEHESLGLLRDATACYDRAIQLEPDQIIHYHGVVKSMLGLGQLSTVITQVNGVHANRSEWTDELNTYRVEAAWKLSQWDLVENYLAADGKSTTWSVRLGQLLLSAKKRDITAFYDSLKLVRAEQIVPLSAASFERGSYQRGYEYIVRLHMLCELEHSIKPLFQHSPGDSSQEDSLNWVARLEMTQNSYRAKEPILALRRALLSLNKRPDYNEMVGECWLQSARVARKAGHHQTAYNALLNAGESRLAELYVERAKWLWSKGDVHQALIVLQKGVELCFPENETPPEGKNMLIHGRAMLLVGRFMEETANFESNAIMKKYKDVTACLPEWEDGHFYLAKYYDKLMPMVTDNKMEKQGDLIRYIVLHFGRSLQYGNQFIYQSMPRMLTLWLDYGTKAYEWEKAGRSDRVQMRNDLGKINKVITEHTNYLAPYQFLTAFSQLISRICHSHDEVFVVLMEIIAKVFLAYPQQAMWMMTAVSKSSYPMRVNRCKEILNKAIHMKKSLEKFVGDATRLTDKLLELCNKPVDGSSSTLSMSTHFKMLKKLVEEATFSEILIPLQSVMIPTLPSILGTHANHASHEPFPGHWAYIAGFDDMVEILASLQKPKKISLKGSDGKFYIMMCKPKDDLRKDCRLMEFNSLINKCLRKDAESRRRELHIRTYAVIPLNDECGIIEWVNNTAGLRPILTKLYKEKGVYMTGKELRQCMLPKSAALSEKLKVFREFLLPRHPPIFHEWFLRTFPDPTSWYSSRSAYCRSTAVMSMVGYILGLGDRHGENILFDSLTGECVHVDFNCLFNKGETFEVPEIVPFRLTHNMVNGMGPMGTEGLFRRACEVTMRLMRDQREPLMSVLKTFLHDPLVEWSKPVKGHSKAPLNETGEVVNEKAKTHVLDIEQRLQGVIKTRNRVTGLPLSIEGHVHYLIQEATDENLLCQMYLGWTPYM

Data on 13 molecules can be found in patent US10392391B2 (Vertex Pharmaceuticals Incorporated, priority 2012, dated 2019).

As to `CN1CCCCC1C(=O)N1CCN(c2c(F)cncc2NC(=O)c2c(N)nn3cc(F)cnc23)CC1` (stereo not shown) [I-N-214, 2-amino-6-fluoro-N-(5-fluoro-4-(4-(1-methylpiperidine-2-carbonyl)piperazin-1-yl)pyridin-3-yl)pyrazolo[1,5-a]pyrimidine-3-carboxamide], the Ki was 10 to 1000 nM.

In the case of `CN(C)CCOCCOc1ccncc1NC(=O)c1c(N)nn2cc(Cl)cnc12` [I-O-47, 2-amino-6-chloro-N-(4-(2-(2-(dimethylamino)ethoxy)ethoxy)pyridin-3-yl)pyrazolo[1,5-a]pyrimidine-3-carboxamide], the Ki was in the range of 10 to 1000 nM.

In the case of `CC1(C)CN(c2ccncc2NC(=O)c2c(N)nn3cc(F)cnc23)CCS1(=O)=O` [I-N-252, 2-amino-N-(4-(2,2-dimethyl-1,1-dioxidothiomorpholino)pyridin-3-yl)-6-fluoropyrazolo[1,5-a]pyrimidine-3-carboxamide], the Ki was in the range of 10 to 1000 nM.

On to `CN1CCCN(C(=O)C2CCN(c3c(F)cncc3NC(=O)c3c(N)nn4cc(F)cnc34)CC2)CC1` [I-G-6, 2-amino-6-fluoro-N-(5-fluoro-4-(4-(4-methyl-1,4-diazepane-1-carbonyl)piperidin-1-yl)pyridin-3-yl)pyrazolo[1,5-a]pyrimidine-3-carboxamide], for which the Ki lay in the range of 10 to 1000 nM.

For `Cc1cncc(NC(=O)c2c(N)nn3cc(F)cnc23)c1N1CCC(C(=O)N2CCNCC2)CC1` [I-G-56, 2-amino-6-fluoro-N-(5-methyl-4-(4-(piperazine-1-carbonyl)piperidin-1-yl)pyridin-3-yl)pyrazolo[1,5-a]pyrimidine-3-carboxamide], the Ki lay within 10 to 1000 nM.

For `CN1CCC(C(=O)N2CC=C(c3c(F)cncc3NC(=O)c3c(N)nn4cc(F)cnc34)CC2)CC1` [I-C-38, 2-amino-6-fluoro-N-(5-fluoro-1′-(1-methylpiperidine-4-carbonyl)-1′,2′,3′,6′-tetrahydro-[4,4′-bipyridin]-3-yl)pyrazolo[1,5-a]pyrimidine-3-carboxamide], the Ki was in the range of 10 to 1000 nM.

`CS(=O)(=O)C1CN(C(=O)C2CCN(c3c(F)cncc3NC(=O)c3c(N)nn4cc(F)cnc34)CC2)C1` [I-G-86, 2-amino-6-fluoro-N-(5-fluoro-4-(4-(3-(methylsulfonyl)azetidine-1-carbonyl)piperidin-1-yl)pyridin-3-yl)pyrazolo[1,5-a]pyrimidine-3-carboxamide]: the Ki is 10 to 1000 nM.

Regarding `CN1CCN(c2ccncc2NC(=O)c2c(N)nn3cc(Cl)cnc23)CC1` [I-N-59, 2-amino-6-chloro-N-(4-(4-methylpiperazin-1-yl)pyridin-3-yl)pyrazolo[1,5-a]pyrimidine-3-carboxamide], the Ki was 10 to 1000 nM.

`Nc1nn2cc(Cl)cnc2c1C(=O)Nc1cnccc1Oc1cccnc1` [I-O-70, 2-amino-6-chloro-N-(4-(pyridin-3-yloxy)pyridin-3-yl)pyrazolo[1,5-a]pyrimidine-3-carboxamide]: the Ki was in the range of 10 to 1000 nM.

Consider `CN1CCN(c2ccncc2NC(=O)c2c(N)nn3cc(F)cnc23)CC12CCOCC2` [I-N-133, 2-amino-6-fluoro-N-(4-(1-methyl-9-oxa-1,4-diazaspiro[5.5]undecan-4-yl)pyridin-3-yl)pyrazolo[1,5-a]pyrimidine-3-carboxamide], for which the Ki was in the range of 10 to 1000 nM.

With `Cc1nc(C)n(-c2ccncc2NC(=O)c2c(N)nn3cc(F)cnc23)n1` [I-N-218, 2-amino-N-(4-(3,5-dimethyl-1H-1,2,4-triazol-1-yl)pyridin-3-yl)-6-fluoropyrazolo[1,5-a]pyrimidine-3-carboxamide], the Ki lay in the range of 10 to 1000 nM.

Regarding `Nc1nn2cc(Cl)cnc2c1C(=O)Nc1cnccc1OCCO` [I-O-66, 2-amino-6-chloro-N-(4-(2-hydroxyethoxy)pyridin-3-yl)pyrazolo[1,5-a]pyrimidine-3-carboxamide], the Ki fell in the range of 10 to 1000 nM.

Regarding `Nc1nn2cc(F)cnc2c1C(=O)Nc1cnccc1N1CCC(C(=O)N2CC(F)C2)CC1` [I-G-82, 2-amino-6-fluoro-N-(4-(4-(3-fluoroazetidine-1-carbonyl)piperidin-1-yl)pyridin-3-yl)pyrazolo[1,5-a]pyrimidine-3-carboxamide], the Ki is 10 to 1000 nM.
